This note sets out measurements from EPA's ToxValDB 9.5 (doi:10.2903/j.efsa.2017.4989).

For data set [1], the system named is Rattus norvegicus.
Data set [2] has as its system Oncorhynchus mykiss. Particulars: for LC50: acute, duration: 96 hours, mortality.
For data set [3], the system named is Folsomia candida. The conditions noted are these: chronic/long-term; mortality.
The subject of data set [4] is Tagia sp. The conditions noted are these: chronic/long-term; growth.
Data set [5] deals with Hypoaspis aculeifer. Particulars: chronic/long-term; mortality.
The subject of data set [6] is Apis mellifera. Particulars: acute, duration: 48 hours, mortality.
Data set [7] concerns Daphnia magna. The conditions noted are these: chronic/long-term; duration: 21 days; reproduction.
Data set [8] has as its system Anas platyrhynchos. Particulars: acute; oral; unspecified; mortality.
Data set [9] concerns Oryctolagus sp. The conditions noted are these: developmental; development.
The subject of data set [10] is Colinus virginianus.

Values after ≈ are worked out from the molar mass of the structure shown.

Usually NOAEL stands for the highest tested level that showed no adverse finding. `CO/N=C(/C(=O)O)c1ccccc1CO/N=C(/C(=O)O)c1cccc(C(F)(F)F)c1` came in with an LD50 in data set [1] (acute, oral, mortality) of over 2000 mg/kg-day. The molecule further had an NOAEL in data set [1] (short-term, duration: 28 days) of over 1000 mg/kg-day. In data set [2], this molecule yielded an LC50 of over 100 µg/mL. Also, the NOEC in data set [3] and in [4] was 100 mg/kg each time.

As to `CO/N=C(/C(=O)OC)c1ccccc1CO/N=C(\C)c1cccc(C(F)(F)F)c1` [Trifloxystrobin], the LC50 in [1] (acute, oral, mortality) was over 5000 mg/kg-day; in [2], 0.015 µg/mL (≈ 0.0367 µM). Further, the no-observed-adverse-effect level (NOAEL) in data set [1] (chronic, body weight) stood at 10 mg/kg-day; in data set [1] (reproduction developmental, body weight), 10 mg/kg-day; in data set [9], 50 mg/kg-day. Moreover, the NOEC in [5] stood at 249 mg/kg; in data set [7] it was 0.00276 mg/L; in data set [2] (chronic/long-term, duration: 95 days, other), 0.0043 mg/L; in data set [3], 249 mg/kg; in [4] it was 3.5 mg/kg. Besides, the LD50 in data set [6] (dermal) was over 100 µg/piece; in data set [6] (oral, unspecified), over 110 µg/piece; in data set [8], over 2250 mg/kg-day; in data set [10] (acute, oral, mortality), over 2000 mg/kg-day. The same molecule came in with an NOEL in [10] (chronic) of 31 mg/kg-day.

For the molecule `CO/N=C(/C(=O)O)c1ccccc1CO/N=C(\C(=O)O)c1cccc(C(F)(F)F)c1`, in data set [1] (acute, oral, mortality), the LD50 was over 2000 mg/kg-day. The NOAEL in data set [1] (short-term, duration: 28 days, clinical chemistry) is 150 mg/kg-day. The NOEC stood at 100 mg/kg in [5], 10 mg/kg in data set [3] and 100 mg/kg in [4]. The same molecule displayed an LC50 in data set [2] of over 100 µg/mL.
